The subject of assay [1] is Leishmania donovani axenic amastigote parasites. Put plainly: Leishmania donovani axenic amastigote proliferation assay (Cell TiterGlo luminescence, 2 day incubation). Type of assay: cell-based. To be noted: Leishmania donovani, read-out: L. donovani amastigotes EC50. In general terms: ATP-based viability assays read luminescence as a measure of living cells.
In assay [2] the test system is L. donovani HU3 strain in mouse peritoneal macrophages. Kind of assay: Assay for proliferation of Leishmania parasites in infected mouse peritoneal macrophages (SybrGreen staining, high-content imaging, 5 days). The note with it: Leishmania donovani, Peritoneal macrophage, L. donovani in mouse peritoneal macrophages, read-out: L. donovani Macrophage EC50. Type of assay: cell-based, Leishmania donovani.

The test system of assay [3] is Trypanosoma brucei Lister 427 strain, bloodstream form. Kind of assay: Assay for proliferation of kinetoplastid parasite Trypanosoma brucei (Cell Titer Glo, 48 hours). The note with it: Trypanosoma brucei, T. brucei Lister 427 bloodstream form, read-out: T. brucei EC50. The class given is cell-based. Summed up: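 Bloodstream-form T. brucei Lister 427 in HMI-9 medium was exposed to compound (DMSO vehicle) for 48 hours at 37° C, 5% CO2. Parasite growth was read as ATP by CellTiter-Glo luminescence, with EC50 calculated from percent inhibition.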

Assay [4] has as its system Trypanosoma cruzi amastigotes (Tulahuen strain expressing Lac-Z) cultured in 3T3 fibroblast cells. Put plainly: microbe, parasite or virus in culture. Type of assay: cell-based. To be noted: Trypanosoma cruzi, TULAHUEN, Fibroblast, T. cruzi amastigotes in 3T3 fibroblast cells, read-out: T cruzi EC50.
Setting [5] is: axenic amastigotes, inhibition of proliferation.

Like-named read-outs stand apart in the source and are kept apart here.

By EC50 is commonly meant the concentration giving half of the maximal effect.

In the case of `COCCOc1cnc2nc(-c3cc(NC(=O)c4oc(C)nc4C)ccc3F)cn2c1` [Compound 547, N-(4-fluoro-3-(6-(2-methoxyethoxy)imidazo[1,2-a]pyrimidin-2-yl)phenyl)-2,4-dimethyloxazole-5-carboxamide], the EC50 in assay [1] (L. donovani axenic amastigotes) turned out to be 0.856 µM; in assay [2] it was 4.53 µM; in assay [3] it was 0.607 µM; in assay [4] it was 1.36 µM.

As to `CN(C)C(=O)Nc1ccc(F)c(-c2cn3cc(C(F)(F)F)cnc3n2)c1` [Compound 298], the EC50 in assay [1] (setting [5]) amounted to 0.781 µM; in assay [2] (inhibition of proliferation), 2.23 µM; in assay [3] (inhibition of proliferation), 0.355 µM; in assay [4] (inhibition of proliferation), 0.525 µM.

With `Cc1nc(C)c(C(=O)Nc2ccc(F)c(-c3cn4cc(NC(=O)N5CCNC5=O)cnc4n3)c2)o1` [Compound 224], the EC50 in assay [1] (setting [5]) was 1.41 µM; in assay [2] (inhibition of proliferation), over 50 µM; in assay [3] (inhibition of proliferation), 0.757 µM; in assay [4] (inhibition of proliferation), over 20 µM.

For the compound `Cc1nc(C(=O)Nc2cnc3nc(-c4cc(NC(=O)c5oc(C)nc5C)ccc4F)cn3c2)no1` [Compound 183], the EC50 in assay [1] (setting [5]) was 3.63 µM; in assay [2] (inhibition of proliferation), 11.5 µM; in assay [3] (inhibition of proliferation), 2.1 µM; in assay [4] (inhibition of proliferation) it was over 20 µM.

As for `COC(=O)Nc1cnc2nc(-c3cc(NC(=O)c4oc(C)nc4C)ccc3F)cn2c1` [Compound 310], the EC50 worked out at 0.243 µM in assay [1] (setting [5]), 0.564 µM in assay [2] (inhibition of proliferation), 0.293 µM in assay [3] (inhibition of proliferation) and 1.24 µM in assay [4] (inhibition of proliferation).

As for `Cc1nc(C)c(C(=O)Nc2ccc(F)c(-c3cn4cc(-c5ccc(N6CCN(C(C)C)CC6)cc5)cnc4n3)c2)o1` [Compound 382], the EC50 is 3.88 µM in assay [1] (L. donovani axenic amastigotes), 10.7 µM in assay [2], 2.6 µM in assay [3] and 1.39 µM in assay [4].

Turning to `CC(C)OC(=O)Nc1cnc2nc(-c3cc(NC(=O)C4CC4)ccc3Cl)cn2c1` [Compound 245], the half-maximal effective concentration (EC50) in assay [1] (setting [5]) amounted to 1.69 µM; in assay [2] (inhibition of proliferation), 2.03 µM; in assay [3] (inhibition of proliferation), 1.4 µM; in assay [4] (inhibition of proliferation) it was 1.13 µM.

With `CC(C)OC(=O)Nc1cnc2nc(-c3cc(NC(=O)N4CCC(N(C)C)C4)ccc3Cl)cn2c1` (stereo not drawn) [Compound 275], the EC50 in assay [1] (setting [5]) is over 25 µM; in assay [2] (inhibition of proliferation), 17.1 µM; in assay [3] (inhibition of proliferation), 34.7 µM; in assay [4] (inhibition of proliferation) it was 11.7 µM.

In the case of `CC(C)OC(=O)Nc1cnc2nc(-c3cc(Nc4ncccc4OC(F)(F)F)ccc3F)cn2c1` [Compound 487], the EC50 was over 25 µM in assay [1] (L. donovani axenic amastigotes), over 50 µM in assay [2], over 50 µM in assay [3] and over 16.6 µM in assay [4].

For the compound `Cc1ncc(C(=O)Nc2ccc(F)c(-c3cn4cc(N(C)C)cnc4n3)c2)o1` [Compound 467], the EC50 stood at 0.147 µM in assay [1] (L. donovani axenic amastigotes), 0.266 µM in assay [2], 0.166 µM in assay [3] and 0.129 µM in assay [4].

Regarding `Nc1cnc2nc(-c3cc(NC(=O)c4ccc(F)o4)ccc3Cl)cn2c1` [Compound 577, N-(3-(6-aminoimidazo[1,2-a]pyrimidin-2-yl)-4-chlorophenyl)-5-fluorofuran-2-carboxamide], the EC50 in assay [1] (L. donovani axenic amastigotes) was 2.99 µM; in assay [2], over 50 µM; in assay [3], 1.35 µM; in assay [4] it was 2.34 µM.

In the case of `Cc1nc(C)c(C(=O)Nc2ccc(F)c(-c3cn4cc(C5CCCC5)cnc4n3)c2)o1` [Compound 422], the EC50 was found to be 0.126 µM in assay [1] (L. donovani axenic amastigotes), 0.305 µM in assay [2], 0.033 µM in assay [3] and 0.193 µM in assay [4].

As to `CCC(C)Nc1cnc2nc(-c3cc(NC(=O)c4oc(C)nc4C)ccc3F)cn2c1` (stereo not drawn) [Compound 464], the half-maximal effective concentration (EC50) in assay [1] (L. donovani axenic amastigotes) was determined as 0.47 µM; in assay [2], 0.672 µM; in assay [3] it was 0.109 µM; in assay [4], 0.148 µM.

Take `Cc1nc(C)c(C(=O)Nc2ccc(F)c(-c3cn4cc(C#CCCO)cnc4n3)c2)o1` [Compound 543, N-(4-fluoro-3-(6-(4-hydroxybut-1-yn-1-yl)imidazo[1,2-a]pyrimidin-2-yl)phenyl)-2,4-dimethyloxazole-5-carboxamide]: the EC50 in assay [1] (L. donovani axenic amastigotes) turned out to be 0.212 µM; in assay [2], 0.759 µM; in assay [3] it was 0.134 µM; in assay [4], 0.882 µM.

In the case of `CC(C)OC(=O)Nc1cnc2nc(-c3cc(NC(=O)N(C)C)ccc3Cl)cn2c1` [Compound 246], the EC50 in assay [1] (setting [5]) is 0.562 µM; in assay [2] (inhibition of proliferation) it was 1.19 µM; in assay [3] (inhibition of proliferation), 0.085 µM; in assay [4] (inhibition of proliferation) it was 0.622 µM.

For `Cc1nc(C(=O)Nc2ccc(F)c(-c3cn4cc(NC(=O)OC(C)C)cnc4n3)c2)c(C(F)(F)F)o1` [Compound 69], the concentration giving a half-maximal response (EC50) was determined as 1.4 µM in assay [1] (setting [5]), 3.3 µM in assay [2] (inhibition of proliferation), 3.12 µM in assay [3] (inhibition of proliferation) and 0.403 µM in assay [4] (inhibition of proliferation).

Turning to `Cc1ncc(C(=O)Nc2cccc(-c3cn4cc(NC(=O)OC(C)C)cnc4n3)c2)o1` [Compound 202], the EC50 in assay [1] (setting [5]) is 0.229 µM; in assay [2] (inhibition of proliferation), 2.72 µM; in assay [3] (inhibition of proliferation), 0.249 µM; in assay [4] (inhibition of proliferation) it was over 20 µM.

`Cc1nc(C)c(C(=O)Nc2ccc(F)c(-c3cn4cc(NC(=O)OC(C)C)cnc4n3)c2)s1` [Compound 68]: the EC50 in assay [1] (setting [5]) came to 14.2 µM; in assay [2] (inhibition of proliferation) it was 39.2 µM; in assay [3] (inhibition of proliferation), 14.2 µM; in assay [4] (inhibition of proliferation) it was 3.6 µM.

In the case of `Cc1nc(C)c(C(=O)Nc2ccc(F)c(-c3cn4cc(C5CCNCC5)cnc4n3)c2)o1` [Compound 538, N-(4-fluoro-3-(6-(piperidin-4-yl)imidazo[1,2-a]pyrimidin-2-yl)phenyl)-2,4-dimethyloxazole-5-carboxamide], the EC50 in assay [1] (L. donovani axenic amastigotes) was determined as 2.36 µM; in assay [2], 1.86 µM; in assay [3], 0.613 µM; in assay [4] it was 0.447 µM.

For the compound `COC1CCC(C(=O)Nc2cnc3nc(-c4cc(NC(=O)c5oc(C)nc5C)ccc4F)cn3c2)CC1` (stereo not drawn) [Compound 169], the EC50 came to 0.7 µM in assay [1] (setting [5]), 2.42 µM in assay [2] (inhibition of proliferation), 0.523 µM in assay [3] (inhibition of proliferation) and 3.87 µM in assay [4] (inhibition of proliferation).

`Cc1nc(C)c(C(=O)Nc2ccc(F)c(-c3cn4cc(-c5ccc(NC(C)C)cc5)cnc4n3)c2)o1` [Compound 380]: the EC50 in assay [1] (L. donovani axenic amastigotes) was found to be 24.5 µM; in assay [2], 33.9 µM; in assay [3], 30.7 µM; in assay [4] it was 14.1 µM.

As to `CC(C)OC(=O)Nc1cnc2nc(-c3cc(NC(=O)/C=C/CN(C)C)ccc3F)cn2c1` [Compound 103], the EC50 in assay [1] (setting [5]) is 2.15 µM; in assay [2] (inhibition of proliferation), 9.86 µM; in assay [3] (inhibition of proliferation), 5.62 µM; in assay [4] (inhibition of proliferation) it was 10.8 µM.

For `CC(C)c1cnc2nc(-c3cc(NC(=O)N(C)C)ccc3F)cn2c1` [Compound 417], the EC50 in assay [1] (L. donovani axenic amastigotes) came out at 0.25 µM; in assay [2], 1.3 µM; in assay [3], 0.145 µM; in assay [4] it was 0.135 µM.

Turning to `CC1(C(=O)Nc2cnc3nc(-c4cc(NC(=O)N5CCCC5)ccc4F)cn3c2)CC(F)(F)C1` [Compound 146], the EC50 was 1.05 µM in assay [1] (setting [5]), 7.18 µM in assay [2] (inhibition of proliferation), 0.236 µM in assay [3] (inhibition of proliferation) and over 20 µM in assay [4] (inhibition of proliferation).

On to `CC(C)OC(=O)Nc1cnc2nc(-c3cc(NC(=O)c4ccc(Cl)o4)ccc3Cl)cn2c1` [Compound 44], for which the EC50 turned out to be 0.121 µM in assay [1] (setting [5]), 0.193 µM in assay [2] (inhibition of proliferation), 0.039 µM in assay [3] (inhibition of proliferation) and 0.047 µM in assay [4] (inhibition of proliferation).

In the case of `O=C(Nc1ccc(F)c(-c2cn3cc(Cl)cnc3n2)c1)N1CCC1` [Compound 237], the EC50 in assay [1] (setting [5]) turned out to be 0.217 µM; in assay [2] (inhibition of proliferation), 0.877 µM; in assay [3] (inhibition of proliferation) it was 0.122 µM; in assay [4] (inhibition of proliferation), 0.229 µM.

`CN(C)C(=O)Nc1ccc(F)c(-c2cn3cc(F)cnc3n2)c1` [Compound 230]: the EC50 in assay [1] (setting [5]) is 2.73 µM; in assay [2] (inhibition of proliferation), 11.7 µM; in assay [3] (inhibition of proliferation), 0.323 µM; in assay [4] (inhibition of proliferation), 1.31 µM.

In the case of `O=C(Nc1ccc(F)c(-c2cn3cc(C(F)(F)F)cnc3n2)c1)N1CC(F)(F)C1` [Compound 300], the EC50 in assay [1] (setting [5]) is 0.09 µM; in assay [2] (inhibition of proliferation) it was 0.397 µM; in assay [3] (inhibition of proliferation) it was 0.155 µM; in assay [4] (inhibition of proliferation) it was 0.148 µM.

As to `CC(C)(C)OC(=O)N1CCOCC1C(=O)Nc1ccc(F)c(-c2cn3cc(C4CC4)cnc3n2)c1` (stereo not drawn) [Compound 603], the EC50 in assay [1] (L. donovani axenic amastigotes) was 17.8 µM; in assay [2], 12.7 µM; in assay [3], 8.17 µM; in assay [4], 5.84 µM.

Turning to `CC(C)OC(=O)Nc1cnc2nc(-c3cc(NC(=O)N4CC[C@@H](O)C4)ccc3Cl)cn2c1` [Compound 286], the EC50 in assay [1] (setting [5]) was over 19.7 µM; in assay [2] (inhibition of proliferation) it was over 50 µM; in assay [3] (inhibition of proliferation) it was 29.7 µM; in assay [4] (inhibition of proliferation) it was over 20 µM.

For the compound `Cc1cnc(-c2cnc3nc(-c4cc(NC(=O)c5oc(C)nc5C)ccc4F)cn3c2)cn1` [Compound 452], the EC50 in assay [1] (L. donovani axenic amastigotes) came to 0.019 µM; in assay [2] it was 0.061 µM; in assay [3], 0.097 µM; in assay [4] it was 0.045 µM.

As for `CC(C)OC(=O)Nc1cnc2nc(-c3cc(NC(=O)N4CCCC4c4ccccn4)ccc3Cl)cn2c1` (stereo not drawn) [Compound 259], the EC50 in assay [1] (setting [5]) is over 22.1 µM; in assay [2] (inhibition of proliferation), 23.7 µM; in assay [3] (inhibition of proliferation), 34.6 µM; in assay [4] (inhibition of proliferation), 10.9 µM.

Regarding `CN(C)C(=O)Nc1ccc(F)c(-c2cn3cc(-c4ccccc4)cnc3n2)c1` [Compound 323], the EC50 in assay [1] (setting [5]) amounted to 0.097 µM; in assay [2] (inhibition of proliferation) it was 0.278 µM; in assay [3] (inhibition of proliferation), 0.047 µM; in assay [4] (inhibition of proliferation) it was 0.046 µM.

The record behind these values is patent US20160045505A1, “COMPOUNDS AND COMPOSITIONS FOR THE TREATMENT OF PARASITIC DISEASES” (NOVARTIS AG, priority 2013, published 2016).
